In one data set the target is T1, CYP2C9 (Homo sapiens, UniProt P11712).
T1 construct: incubated with human liver microsomes; from tissue; host or cells: human liver microsomes
In words: CYP enzyme inhibition in human liver microsomes, CYP2C9. Type of data set: in vitro ADME.

Another data set relates to Balb/c mice, 6.11 Gy TBI. Description: Structural analog / calorie effect study: EC-18, PLH, olive oil in 6.11 Gy ARS model. In kind it is in vivo, mouse. The conditions noted are these: 250 mg/kg daily. The procedure: Similarly, a structural analog efficacy study was conducted to identify the optimally functional molecule in the ARS murine model. The study was performed with the structural analog in which the acetyl group in EC-18 is replaced with a hydroxyl group (yielding palmitic linoleic hydroxyl glycerol, PLH) in 20 Balb/c mice (10 female and 10 male) per group. Mice were irradiated with TBI of 6.11Gy at day 0 and 250 mg/kg of EC-18 or PLH were given daily in-life.
The purpose of this study was to assess whether extra calories of EC-18 contribute to the enhanced survival in mice after exposure to a whole-body sublethal dose of γ-radiation. The study was performed with the structural analog in which the acetyl group in EC-18 is replaced with a hydroxyl group (yielding PLH) in a total of 100 BALB/c mice ([…]; 20 animals per study group) aged at 11 weeks. Mice were irradiated with TBI of 6.11Gy at day 0 and the same dosage (250 mg/kg) of EC-18, PLH, or olive oil (vehicle control) were given daily in-life.

The nature of data set [1]: Plasma protein binding by rapid equilibrium dialysis, human. As to the method: The plasma protein binding ability of EC-18 was tested by rapid equilibrium dialysis (RED). The chamber separated by a dialysis tubing membrane (cut-off: 8 kDa) was filled on one side with rat or human plasma mixed with phosphate buffer and on the other side with rat or human plasma mixed with the test or standard reference material (test concentration: 1 μM).
(In general: In equilibrium dialysis only unbound substance equilibrates across the membrane.)

For data set [2], the system named is Balb/c mice, whole body radiation 1 Gy. In words: Blood immune cell counts (CBC) in radiation-induced leukopenia (RIL) ARS model. In kind it is in vivo, mouse. The text has this: Balb/c mice (9-week-old male) were purchased from Koatech (Pyeongtaek, Republic of Korea) and maintained in a specific pathogen-free (SPF) environment to establish an animal model of acute radiation syndrome. In order to evaluate the effect of PLAG on the reduction of immune cells by radiation, the following three groups were constructed for this study. (1) normal control group (positive control); (2) Radiotherapy-Radiation induced leukopenia (RIL) group (negative control group); And (3) RIL+PLAG treated group (experimental group).
Specifically, mice treated with RIL and […] were exposed to whole body radiation at 1 Gy (100 rad=1.06 min). For the RIL+PLAG treatment group, 50 mg/kg/day of PLAG (Enzychem Lifesciences Co., Daejeon, Republic of Korea) was orally administered daily for 4 consecutive days after irradiation. The normal controls were not exposed to radiation. On the 5th day after irradiation, blood samples were collected, and then Complete Blood Count (CBC) was measured using a Mindray BC-5300 auto hematology analyzer (Shenzhen Mindray Bio-medical Electronics, China) so that the number of blood leukocytes, neutrophils and lymphocytes in blood could be counted (FIG. 1).

For data set [3], the system named is Balb/c mice, 1 Gy gamma radiation + 5-Fluorouracil + tongue scratch. Description: Radiation-induced oral mucositis ARS model: survival, mucositis, blood neutrophils. In kind it is in vivo, mouse. The conditions noted are these: PLAG 250 mg/kg/day oral. As to the method: In order to further confirm the effect of PLAG on the acute radiation syndrome, an animal model of radiation-induced oral mucositis was prepared and tested as an acute radiation syndrome animal model with severer conditions than those in Example 1 above. First, Balb/c mice (8-week-old female) were purchased from Koatech (Republic of Korea) and maintained in a specific pathogen-free (SPF) environment to establish a radiation-induced oral mucositis model. In this example, first group of oral mucositis induced group (negative control) was compared to the second group where PLAG was orally administered to animals with induced oral mucositis.
Specifically, mice were exposed to 1 Gy whole body gamma radiation and scars of 0.2 cm on the mice tongue were scratched at 0, 7, 10 and 16 days with the same force and depth using an 18 gauge needle. On day 2 post-irradiation, 5-Fluorouracil (50 mg/kg/day) was intraperitoneally administered and PLAG was administered orally at 250 mg/kg/day for 18 days (Table 2).
Oral mucositis level was determined by counting the ulcer formation and edema of the tongue and the incidence of wound atrophy, and calculating the score of oral mucositis by a total of 5 blinded observers. On the 7th and 10th day, the blood of the experimental groups was collected and the number of neutrophils in the blood was measured by measuring the Complete Blood Count (CBC) using a Mindray BC-5300 auto hematology analyzer (Shenzhen Mindray Bio-medical Electronics, China).

The target in the next data set is T2, OAT1 (Homo sapiens, UniProt Q4U2R8).
T2 construct: expressed in transfected cells; host or cells: HEK-293
T2 sequence (Q4U2R8 whole entry, species assumed): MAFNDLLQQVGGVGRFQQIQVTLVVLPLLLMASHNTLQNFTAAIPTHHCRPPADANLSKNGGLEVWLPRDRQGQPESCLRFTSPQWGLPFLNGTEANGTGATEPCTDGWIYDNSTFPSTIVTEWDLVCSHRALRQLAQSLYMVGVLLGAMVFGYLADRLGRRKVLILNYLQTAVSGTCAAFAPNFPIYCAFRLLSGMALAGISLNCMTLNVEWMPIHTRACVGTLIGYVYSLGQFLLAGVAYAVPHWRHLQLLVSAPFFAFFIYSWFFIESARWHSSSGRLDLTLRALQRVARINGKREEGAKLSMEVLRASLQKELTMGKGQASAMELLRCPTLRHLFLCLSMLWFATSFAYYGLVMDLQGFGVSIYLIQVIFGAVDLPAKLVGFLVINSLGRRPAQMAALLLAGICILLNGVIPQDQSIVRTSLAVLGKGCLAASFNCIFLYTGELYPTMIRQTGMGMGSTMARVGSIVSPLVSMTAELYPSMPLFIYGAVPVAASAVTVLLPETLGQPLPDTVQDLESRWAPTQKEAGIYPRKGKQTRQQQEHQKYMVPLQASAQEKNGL
In words: Drug transporter inhibition, OAT1. In kind it is in vitro ADME. As to conditions: 100 nM [3H] para-aminohippuric acid; transfected HEK-293 cells. The procedure:
This study examined the potential of EC-18 to interact with the transporter proteins that have been known to be involved in the absorption of commercially available drugs. EC-18 was pre-incubated with HEK-293 cells and LLC-PK1 cells that were transfected with the genes of most drug transporters as follows: OATP1B1, OATP1B3, OAT1, OAT3 and OCT2, and BCRP and P-gp, respectively.

The test system of data set [4] is HaCaT (human keratinocyte) cells. In words: Radiation-induced DAMP (HMGB1) release from HaCaT cells. In kind it is cell-based. As to conditions: γ-irradiated HaCaT cells. As to the method:
The radiation-induced DAMP removal was evaluated in HaCaT (human keratinocyte) cells exposed with γ-radiation from a ^60Co radiation source (0.833 Gy/minute). As one type of DAMPs, high-mobility group box 1 (HMGB1) was used as a biomarker to establish the mitigating effect of EC-18 against radiation. HMGB1 proportionally secreted as the radiation dosage (5 to 10 Gy) and exposure time (24 to 48 hrs) increased (FIG. 33A).

The mark [5] stands for this setting: RIL + PLAG 50 mg/kg/day oral 4 days, day 5, n=3.

T1 sequence (P11712 whole entry): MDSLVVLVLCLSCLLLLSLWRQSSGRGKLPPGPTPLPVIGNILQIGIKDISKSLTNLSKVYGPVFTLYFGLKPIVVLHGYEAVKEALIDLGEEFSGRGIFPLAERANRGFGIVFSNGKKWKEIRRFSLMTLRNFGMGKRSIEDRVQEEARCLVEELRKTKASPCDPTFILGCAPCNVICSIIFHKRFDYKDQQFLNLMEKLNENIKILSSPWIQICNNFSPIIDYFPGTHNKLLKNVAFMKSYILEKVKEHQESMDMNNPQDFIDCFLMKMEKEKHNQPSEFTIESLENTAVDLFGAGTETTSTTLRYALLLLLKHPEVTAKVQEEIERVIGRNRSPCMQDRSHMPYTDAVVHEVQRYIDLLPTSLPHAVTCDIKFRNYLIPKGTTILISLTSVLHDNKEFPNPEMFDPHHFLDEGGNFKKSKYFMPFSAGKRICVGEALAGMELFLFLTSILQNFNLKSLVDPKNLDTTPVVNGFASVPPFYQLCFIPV

For `CCCCC/C=C\C/C=C\CCCCCCCC(=O)OC(COC(C)=O)COC(=O)CCCCCCCCCCCCCCC` (stereo not shown) [EC-18, 1-palmitoyl-2-linoleoyl-3-acetylglycerol], 7.99 mM corresponded to half-maximal inhibition against CYP2C9 (IC50). In the data set on Balb/c mice, 6.11 Gy TBI, the “No. of mice that survived/total” value is given as 14/20; the Survival is listed as 70%; the “Survival time of decedents, Mean ± SEM” value was determined as 23.7 ± 1.4 days; the “Survival time of decedents, Median” value was found to be 23.5 days. Moreover, in the data set with Balb/c mice, 6.11 Gy TBI, the “body weight loss induced by irradiation” value was “effectively prevented and rapidly recovered weight loss”; the “increase in survival vs control and PLH-treated group” value is reported as 2 fold; the “survival compared to control group” value was “significant increase”. Also, in data set [1] (Humans, 1 μM, 4 hrs RED, n=3), the “Plasma Protein Binding Rate” value is given as greater than 99%. Moreover, in data set [1] (human, plasma), the fraction unbound (usually free concentration divided by total concentration) at 4 hrs, 1 μM was less than 0.01. In addition, in data set [2] (PLAG 50 mg/kg/day, day 5), the “increase of blood leukocyte count vs RIL group” value is reported as 63%, the “increase of blood lymphocyte count vs RIL group” value is 85% and the “increase of blood neutrophil count vs RIL group” value turned out to be 34%. Moreover, in data set [2] (setting [5]), the Lymphocyte is reported as 2.2±0.42 10^3/μL, the Neutrophils is recorded as 1.17±0.35 10^3/μL and the White blood cells is on record as 3.56±0.84 10^3/μL. Moreover, in data set [3], the oral mucositis score entry is listed as “significantly decreased” and the “visually confirmed oral mucositis levels vs non-PLAG-treated group” value is given as “significantly reduced”. Moreover, in data set [3] (days 7 and 10), the “neutrophil number in blood” value is listed as “significantly increased”. Moreover, the survival rate in data set [3] (day 18, n=7) stood at 85%. Moreover, the IC50 (as a rule, the concentration that inhibits the measured activity by half) on OAT1 is greater than 0.032 mM. Also, the HMGB1 release entry in data set [4] is given as “less HMGB1 released in a dose-dependent manner”.

For the origin of these results see patent publication US12076307B2, “Compositions for prevention or treatment of acute radiation syndrome and other radiation exposure” (priority 2017, dated 2024).
